The values below come from ChEMBL document CHEMBL1201862, “PubChem BioAssay data set” (2004).

Test systems include MOLT-4; HCC 2998; A498; SF-295; SR; MDA-N; NCI-H226; MDA-MB-231; COLO 205; Hs-578T; SF-268; CCRF-CEM; HCT-116; RPMI-8226; BT-549; M14.
Experiment in all cases: growth of human tumour cells (NCI), 48 h

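The compound was tested at five concentrations on cells cultured in 96-well plates, with a 48-hour exposure period. GI50: concentration for 50% inhibition of growth.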 Activity calls are given as the source filed them. No stated cut-off is given here; in the data, active = GI50 up to about 1.1 µM and inactive = higher. Where only a bound is given, the exact number is not on record here.

As to `Cn1c2c3ccc(Cl)cc3nc-2c(Cl)c2ccccc21`, the GI50 with MOLT-4 is 19 µM (inactive); in the test with HCC 2998 it was 5.38 µM (inactive); with A498 it was 19.9 µM (inactive); with SF-295 it was 15.2 µM (inactive); in the test on SR, 6.15 µM (inactive); in the test on MDA-N, 20.2 µM (inactive). For the same compound, the GI50 with NCI-H226 was 23 µM (inactive); with MDA-MB-231, 23.7 µM (inactive); in the test on COLO 205 it was 12.2 µM (inactive); in the test with Hs-578T, 40.6 µM (inactive); with SF-268, 14.2 µM (inactive); in the test with CCRF-CEM it was 3.86 µM (inactive). Moreover, the GI50 with HCT-116 was 1.71 µM (inactive); in the test on RPMI-8226, 4.31 µM (inactive); in the test on BT-549 it was 24.3 µM (inactive); in the test on M14, 20.9 µM (inactive).
`Cn1c(SCc2c[nH]c3ccccc23)nnc1-c1ccc(Cl)cc1Cl`: the GI50 with MOLT-4 is 7.36 µM (inactive); with HCC 2998, 12 µM (inactive); with A498 it was 16.3 µM (inactive); in the test on SF-295, 8.3 µM (inactive); in the test with SR it was 4.23 µM (inactive); with MDA-N, 4.44 µM (inactive). Besides, the GI50 is 10.5 µM (inactive) in the test with MDA-MB-231; 14 µM (inactive) with COLO 205; 19.7 µM (inactive) with Hs-578T; 23.9 µM (inactive) in the test with SF-268; 12.8 µM (inactive) in the test on CCRF-CEM; 23.4 µM (inactive) in the test with HCT-116. In addition, the GI50 in the test on RPMI-8226 is 13.1 µM (inactive); in the test with BT-549 it was 18.3 µM (inactive); in the test on M14 it was 11.4 µM (inactive).
As to `CN(CCCCCl)P(=O)(OCc1ccc([N+](=O)[O-])o1)OC[C@H]1O[C@@H](n2cc(F)c(=O)[nH]c2=O)C[C@@H]1O` (some centres undefined), the GI50 with MOLT-4 was 0.583 µM (active); with HCC 2998 it was < 0.01 µM (active); in the test on A498, 0.0236 µM (active); in the test with SF-295 it was 0.0914 µM (active); in the test with SR, 0.0702 µM (active); in the test on MDA-N, 7.03 µM (inactive). For the same compound, the GI50 in the test with NCI-H226 was 3.59 µM (inactive); in the test on MDA-MB-231, 12.9 µM (inactive); in the test on COLO 205, < 0.01 µM (active); in the test with Hs-578T, 0.514 µM (active); in the test with SF-268 it was 0.0284 µM (active); with CCRF-CEM it was 0.173 µM (active). Moreover, the GI50 is 0.995 µM (active) in the test with HCT-116, 1.27 µM (inactive) in the test with RPMI-8226, 2.84 µM (inactive) in the test on BT-549 and 1.04 µM (active) in the test with M14.
Regarding `c1csc(-c2ccsc2-c2ccsc2)c1`, the GI50 with MOLT-4 is 28.4 µM (inactive); in the test with HCC 2998, 28.3 µM (inactive); with A498 it was > 100 µM (inactive); in the test with SF-295, 57.4 µM (inactive); in the test with SR, 33.1 µM (inactive); in the test on MDA-N it was 73.1 µM (inactive). Also, the GI50 with NCI-H226 was 0.0264 µM (active); in the test with MDA-MB-231, > 100 µM (inactive); in the test on COLO 205 it was 73.8 µM (inactive); in the test on Hs-578T, 90.2 µM (inactive); in the test with SF-268, 92.5 µM (inactive); in the test on CCRF-CEM, 45.2 µM (inactive). Further, the GI50 was 60.8 µM (inactive) with HCT-116, 30.2 µM (inactive) in the test on RPMI-8226, > 100 µM (inactive) with BT-549 and > 100 µM (inactive) in the test with M14.
In the case of `Cc1ccc(S(=O)(=O)N(CCN)c2cc3c4c(c2)Oc2cccc5c2C4c2c(cccc2O3)O5)cc1`, the GI50 was 18.5 µM (inactive) with MOLT-4; > 100 µM (inactive) in the test on HCC 2998; 55.3 µM (inactive) in the test with A498; 21.9 µM (inactive) in the test with SF-295; 0.724 µM (active) in the test on SR; 23.8 µM (inactive) in the test on MDA-N. Besides, the GI50 in the test with NCI-H226 is 12.4 µM (inactive); in the test on MDA-MB-231, 17.9 µM (inactive); in the test with COLO 205, 22.6 µM (inactive); with Hs-578T it was 17 µM (inactive); in the test with SF-268, 14.4 µM (inactive); with CCRF-CEM, 22.7 µM (inactive). Moreover, the GI50 is 16.3 µM (inactive) in the test on HCT-116, 30.8 µM (inactive) in the test on RPMI-8226, 47.2 µM (inactive) with BT-549 and 25.6 µM (inactive) in the test on M14.
In the case of `COC(OC)(c1ccccc1)C(Br)Br`, the GI50 was 16.1 µM (inactive) in the test on MOLT-4; > 100 µM (inactive) in the test with HCC 2998; > 100 µM (inactive) in the test on A498; > 100 µM (inactive) in the test on SF-295; 21 µM (inactive) with SR; 31.7 µM (inactive) with MDA-N. Moreover, the GI50 with NCI-H226 is > 100 µM (inactive); with MDA-MB-231 it was 74.5 µM (inactive); with COLO 205, 17.3 µM (inactive); in the test with Hs-578T it was 78 µM (inactive); in the test with SF-268, 42.6 µM (inactive); in the test on CCRF-CEM, 13.6 µM (inactive). Besides, the GI50 in the test on HCT-116 was 17.9 µM (inactive); in the test with RPMI-8226, 36.5 µM (inactive); in the test with BT-549 it was > 100 µM (inactive); in the test on M14 it was 18.6 µM (inactive).
Take `Cc1cc(N(CCC#N)CCC#N)ccc1/C=C1\SC(=S)NC1=O`: the GI50 with MOLT-4 is 91 µM (inactive); with HCC 2998, > 100 µM (inactive); in the test with A498, 49.8 µM (inactive); in the test on SF-295, 17.5 µM (inactive); in the test on SR, 22 µM (inactive); in the test with MDA-N, > 100 µM (inactive). Also, the GI50 was > 100 µM (inactive) in the test with NCI-H226; > 100 µM (inactive) in the test with MDA-MB-231; > 100 µM (inactive) in the test on COLO 205; 14.2 µM (inactive) in the test on Hs-578T; 23.6 µM (inactive) in the test with SF-268; 25.9 µM (inactive) with CCRF-CEM. Besides, the GI50 was 54.2 µM (inactive) with HCT-116, 17.2 µM (inactive) with RPMI-8226, 37.2 µM (inactive) with BT-549 and 40.3 µM (inactive) with M14.
As for `O=C1/C(=C/c2cccc([N+](=O)[O-])c2)N=C(c2ccccc2)N1c1nc2ccc(Sc3ccccc3)cc2[nH]1`, the GI50 was 34.8 µM (inactive) in the test with MOLT-4; 67.6 µM (inactive) in the test on HCC 2998; 87.7 µM (inactive) with A498; 35.7 µM (inactive) in the test on SF-295; 24.8 µM (inactive) with SR; 14.9 µM (inactive) in the test on MDA-N. Moreover, the GI50 was > 100 µM (inactive) in the test on NCI-H226; 93.1 µM (inactive) with MDA-MB-231; 31.8 µM (inactive) in the test with COLO 205; 35.5 µM (inactive) with Hs-578T; 39 µM (inactive) in the test with SF-268; 41.6 µM (inactive) with HCT-116. For the same compound, the GI50 in the test on RPMI-8226 is 33.3 µM (inactive); in the test on BT-549, 88.7 µM (inactive); with M14 it was 38.9 µM (inactive).
As for `COc1ccc(OC)c(C2CCc3nc4nc(N)nc(N)c4cc3C2)c1` (centres undefined), the GI50 is 2.12 µM (inactive) in the test on MOLT-4; 1.74 µM (inactive) with HCC 2998; 12.7 µM (inactive) in the test with A498; 11.7 µM (inactive) in the test on SF-295; 2.48 µM (inactive) in the test with SR; 2.13 µM (inactive) with MDA-N. The GI50 with NCI-H226 was 8.47 µM (inactive); in the test with MDA-MB-231, 2.35 µM (inactive); with COLO 205 it was 3.32 µM (inactive); in the test on Hs-578T, 3.75 µM (inactive); in the test with SF-268, 2.96 µM (inactive); in the test on CCRF-CEM, 2.96 µM (inactive). Besides, the GI50 in the test on HCT-116 is 1.83 µM (inactive); in the test with RPMI-8226 it was 5.78 µM (inactive); with BT-549, 6.9 µM (inactive); in the test on M14, 1.8 µM (inactive).
`CCOCC(=O)N[C@H]1CCc2cc(OC(=O)COCC)c(OC)c(OC)c2-c2ccc(SC)c(=O)cc21`: the GI50 was 0.0269 µM (active) in the test with MOLT-4; 0.0264 µM (active) in the test on HCC 2998; 0.0472 µM (active) in the test with A498; 0.0157 µM (active) in the test on SF-295; 0.0159 µM (active) with SR; 0.0022 µM (active) with MDA-N. Further, the GI50 in the test with NCI-H226 is 0.0301 µM (active); in the test with MDA-MB-231, 0.0274 µM (active); in the test with COLO 205, 0.0219 µM (active); in the test on Hs-578T it was 0.0122 µM (active); with SF-268 it was 0.0384 µM (active); in the test with CCRF-CEM it was 0.0231 µM (active). Moreover, the GI50 in the test with HCT-116 is 0.0175 µM (active); in the test on RPMI-8226, 0.0299 µM (active); with BT-549, 0.0752 µM (active); in the test with M14, 0.0256 µM (active).
Take `CO[C@@H]1C[C@H]2[C@@H]3CC[C@H]([C@H](C)CO)[C@@]3(C)CC[C@@H]2[C@@]2(C)CC[C@H]3C[C@]312`: the GI50 in the test on MOLT-4 is 32.5 µM (inactive); in the test on HCC 2998 it was 36.1 µM (inactive); with A498 it was 80.4 µM (inactive); in the test with SF-295, 28.5 µM (inactive); in the test with SR, 37.5 µM (inactive); with MDA-N it was 39.8 µM (inactive). Further, the GI50 is 28.1 µM (inactive) with NCI-H226; 31.6 µM (inactive) with MDA-MB-231; 20.1 µM (inactive) in the test with COLO 205; 43.4 µM (inactive) with Hs-578T; 35.7 µM (inactive) in the test with SF-268; 30.2 µM (inactive) with HCT-116. For the same compound, the GI50 with RPMI-8226 was 18.3 µM (inactive); with BT-549, 13.3 µM (inactive); with M14, 32.4 µM (inactive).
`CO[C@H]1C=CO[C@@]2(C)Oc3c(C)c(O)c4c(O)c(c(CN5CCN(C)CC5)c(O)c4c3C2=O)NC(=O)/C(C)=C\C=C[C@H](C)[C@H](O)C(C)[C@@H](O)C(C)[C@H](OC(C)=O)[C@@H]1C` (some centres undefined): the GI50 in the test with MOLT-4 was 5.87 µM (inactive); with HCC 2998 it was 44.4 µM (inactive); in the test on A498, > 100 µM (inactive); in the test on SF-295, > 100 µM (inactive); in the test on SR it was 6.62 µM (inactive); in the test with MDA-N, 44.3 µM (inactive). Besides, the GI50 with NCI-H226 was > 63.5 µM (inactive); with MDA-MB-231, 34.4 µM (inactive); with COLO 205 it was 5.7 µM (inactive); in the test on Hs-578T, > 100 µM (inactive); with SF-268 it was 50.2 µM (inactive); in the test with CCRF-CEM it was 4.39 µM (inactive). In addition, the GI50 with HCT-116 is 13.4 µM (inactive); with RPMI-8226 it was 4.62 µM (inactive); with BT-549 it was 45.9 µM (inactive); in the test on M14, 24.2 µM (inactive).
